According to US20210045385A1, “PYRIDAZINONE-SUBSTITUTED KETOXIMES AS HERBICIDES” (FMC Corporation, priority 2018, published 2021):

What was measured:
Assay type in all cases: in vivo
[1] = tested on: Italian ryegrass (Lolium mutiflorum); experiment: Test C preemergence, visual plant response rating
Excerpt: (§1) Seeds of plant species selected from barnyardgrass (Echinochloa crus-galli), kochia (Bassia scoparia), ragweed (common ragweed, Ambrosia artemisiifolia), Italian ryegrass (Lolium mutiflorum), foxtail, giant (giant foxtail, Setaria faberi), foxtail, green (green foxtail, Setaria viridis), and pigweed (Amaranthus retroflexus) were planted into a blend of loam soil and sand and treated preemergence with a directed soil spray using test chemicals formulated in anon-phytotoxic solvent mixture which included a surfactant.
(§2) At the same time, plants selected from these weed species and also wheat (Triticum aestivum), corn (Zea mays), blackgrass (Alopecurus myosuroides), and galium (catchweed bedstraw, Galium aparine) were planted in pots containing the same blend of loam soil and sand and treated with post emergence applications of test chemicals formulated in the same manner. Plants ranged in height from 2 to 10 cm and were in the one- to two-leaf stage for the postemergence treatment. Treated plants and untreated controls were maintained in a greenhouse for approximately 10 d, after which time all treated plants were compared to untreated controls and visually evaluated for injury. Plant response ratings, summarized in Table C, are based on a 0 to 100 scale where 0 is no effect and 100 is complete control. A dash (-)response means no test result.

[2] = tested on: barnyardgrass (Echinochloa crus-galli); experiment: Test C preemergence, visual plant response rating
Excerpt: as §1, §2

[3] = tested on: foxtail, giant (giant foxtail, Setaria faberi); experiment: Test C preemergence, visual plant response rating
Excerpt: as §1, §2

kochia (Bassia scoparia) [4] = experiment: Test C preemergence, visual plant response rating
Excerpt: as §1, §2

[5] = tested on: pigweed (Amaranthus retroflexus); experiment: Test C preemergence, visual plant response rating
Excerpt: as §1, §2

[6] = tested on: Italian ryegrass (Lolium mutiflorum); experiment: Test C postemergence, visual plant response rating
Excerpt: as §1, §2

[7] = tested on: barnyardgrass (Echinochloa crus-galli); experiment: Test C postemergence, visual plant response rating
Excerpt: as §1, §2

[8] = tested on: blackgrass (Alopecurus myosuroides); experiment: Test C postemergence, visual plant response rating
Excerpt: as §1, §2

corn (Zea mays) = experiment: Test C postemergence, visual plant response rating
Excerpt: as §1, §2

[9] = tested on: foxtail, giant (giant foxtail, Setaria faberi); experiment: Test C postemergence, visual plant response rating
Excerpt: as §1, §2

[10] = tested on: galium (catchweed bedstraw, Galium aparine); experiment: Test C postemergence, visual plant response rating
Excerpt: as §1, §2

kochia (Bassia scoparia) [11] = experiment: Test C postemergence, visual plant response rating
Excerpt: as §1, §2

[12] = tested on: pigweed (Amaranthus retroflexus); experiment: Test C postemergence, visual plant response rating
Excerpt: as §1, §2

[13] = tested on: ragweed (common ragweed, Ambrosia artemisiifolia); experiment: Test C postemergence, visual plant response rating
Excerpt: as §1, §2

[14] = tested on: wheat (Triticum aestivum); experiment: Test C postemergence, visual plant response rating
Excerpt: as §1, §2

[15] = tested on: barnyardgrass (Echinochloa crus-galli); experiment: Test D flooded paddy test, visual plant response rating; details: 250 g ai/ha, scale 0 to 100 (0 no effect, 100 complete control), 13 to 15 d
Experimental: (§3) Plant species in the flooded paddy test selected from rice (Oryza sativa), sedge umbrella (small-flower umbrella sedge, Cyperus difformis) duck salad (Heteranthera limosa), and barnyardgrass (Echinochloa crus-galli) were grown to the 2-leaf stage for testing. At time of treatment, test pots were flooded to 3 cm above the soil surface, treated by application of test compounds directly to the paddy water, and then maintained at that water depth for the duration of the test. Treated plants and controls were maintained in a greenhouse for 13 to 15 d, after which time all species were compared to controls and visually evaluated. Plant response ratings, summarized in Table D, are based on a scale of 0 to 100 where 0 is no effect and 100 is complete control. A dash (-) response means no test result.

[16] = tested on: duck salad (Heteranthera limosa); experiment: as above; details: 250 g ai/ha, scale 0 to 100 (0 no effect, 100 complete control), 13 to 15 d
Experimental: as §3

rice (Oryza sativa) = experiment: as above; details: 250 g ai/ha, scale 0 to 100 (0 no effect, 100 complete control), 13 to 15 d
Experimental: as §3

[17] = tested on: sedge umbrella (small-flower umbrella sedge, Cyperus difformis); experiment: as above; details: 250 g ai/ha, scale 0 to 100 (0 no effect, 100 complete control), 13 to 15 d
Experimental: as §3

[18] = Test C, postemergence, 125 g ai/ha
[19] = Test C, postemergence, 500 g ai/ha
[20] = Test C, 31 g ai/ha, 0 is no effect, 100 is complete control

## C#CCON=C(c1c(O)c(OC)nn(C)c1=O)c1cccc2ccccc12 (mixture of isomers) [Compound 168]
[1]; 125 g ai/ha
  Ryegrass, Italian plant response rating (0 to 100 scale): 20
[1]; 500 g ai/ha
  Ryegrass, Italian plant response rating (0 to 100 scale): 90
[2]; 125 g ai/ha
  Barnyardgrass plant response rating (0 to 100 scale): 60
[2]; 500 g ai/ha
  Barnyardgrass plant response rating (0 to 100 scale): 80
[3]; 125 g ai/ha
  Foxtail, Giant plant response rating (0 to 100 scale): 80
[3]; 500 g ai/ha
  Foxtail, Giant plant response rating (0 to 100 scale): 100
Kochia (Bassia scoparia) [4]; 125 g ai/ha
  Kochia plant response rating (0 to 100 scale): 0
Kochia (Bassia scoparia) [4]; 500 g ai/ha
  Kochia plant response rating (0 to 100 scale): 10
[5]; 125 g ai/ha
  Pigweed plant response rating (0 to 100 scale): 100
[5]; 500 g ai/ha
  Pigweed plant response rating (0 to 100 scale): 100
[6]; [18]
  Ryegrass, Italian plant response rating (0 to 100 scale): 40
[6]; [19]
  Ryegrass, Italian plant response rating (0 to 100 scale): 90
[7]; [18]
  Barnyardgrass plant response rating (0 to 100 scale): 40
[7]; [19]
  Barnyardgrass plant response rating (0 to 100 scale): 60
[8]; [18]
  Blackgrass plant response rating (0 to 100 scale): 20
[8]; [19]
  Blackgrass plant response rating (0 to 100 scale): 80
Corn (Zea mays); [18]
  Corn plant response rating (0 to 100 scale): 0
Corn (Zea mays); [19]
  Corn plant response rating (0 to 100 scale): 20
[9]; [18]
  Foxtail, Giant plant response rating (0 to 100 scale): 50
[9]; [19]
  Foxtail, Giant plant response rating (0 to 100 scale): 90
[10]; [18]
  Galium plant response rating (0 to 100 scale): 70
[10]; [19]
  Galium plant response rating (0 to 100 scale): 90
Kochia (Bassia scoparia) [11]; [18]
  Kochia plant response rating (0 to 100 scale): 70
Kochia (Bassia scoparia) [11]; [19]
  Kochia plant response rating (0 to 100 scale): 80
[12]; [18]
  Pigweed plant response rating (0 to 100 scale): 60
[12]; [19]
  Pigweed plant response rating (0 to 100 scale): 100
[13]; [18]
  Ragweed plant response rating (0 to 100 scale): 60
[13]; [19]
  Ragweed plant response rating (0 to 100 scale): 90
[14]; [18]
  Wheat plant response rating (0 to 100 scale): 0
[14]; [19]
  Wheat plant response rating (0 to 100 scale): 30
[15]
  Plant response rating, Barnyardgrass (Flood): 0
[16]
  Plant response rating, Ducksalad (Flood): 0
Rice (Oryza sativa)
  Plant response rating, Rice (Flood): 0
[17]
  Plant response rating, Sedge, Umbrella (Flood): 0

## CCON=C(c1cc(Cl)cc(Br)c1)c1c(O)c(C)nn(C)c1=O [Compound 180]
[1]; 125 g ai/ha
  Ryegrass, Italian plant response rating (0 to 100 scale): 100
[1]; [20]
  Ryegrass, Italian plant response rating (0 to 100 scale): 40
[2]; 125 g ai/ha
  Barnyardgrass plant response rating (0 to 100 scale): 80
[2]; [20]
  Barnyardgrass plant response rating (0 to 100 scale): 0
[3]; 125 g ai/ha
  Foxtail, Giant plant response rating (0 to 100 scale): 100
[3]; [20]
  Foxtail, Giant plant response rating (0 to 100 scale): 70
Kochia (Bassia scoparia) [4]; 125 g ai/ha
  Kochia plant response rating (0 to 100 scale): 100
Kochia (Bassia scoparia) [4]; [20]
  Kochia plant response rating (0 to 100 scale): 0
[5]; 125 g ai/ha
  Pigweed plant response rating (0 to 100 scale): 80
[5]; [20]
  Pigweed plant response rating (0 to 100 scale): 50
[6]; Postemergence, 31 g ai/ha
  Ryegrass, Italian plant response rating (0 to 100 scale): 70
[6]; [18]
  Ryegrass, Italian plant response rating (0 to 100 scale): 100
[7]; Postemergence, 31 g ai/ha
  Barnyardgrass plant response rating (0 to 100 scale): 30
[7]; [18]
  Barnyardgrass plant response rating (0 to 100 scale): 60
[8]; Postemergence, 31 g ai/ha
  Blackgrass plant response rating (0 to 100 scale): 0
[8]; [18]
  Blackgrass plant response rating (0 to 100 scale): 30
Corn (Zea mays); Postemergence, 31 g ai/ha
  Corn plant response rating (0 to 100 scale): 0
Corn (Zea mays); [18]
  Corn plant response rating (0 to 100 scale): 20
[9]; Postemergence, 31 g ai/ha
  Foxtail, Giant plant response rating (0 to 100 scale): 70
[9]; [18]
  Foxtail, Giant plant response rating (0 to 100 scale): 90
[10]; Postemergence, 31 g ai/ha
  Galium plant response rating (0 to 100 scale): 90
[10]; [18]
  Galium plant response rating (0 to 100 scale): 100
Kochia (Bassia scoparia) [11]; Postemergence, 31 g ai/ha
  Kochia plant response rating (0 to 100 scale): 80
Kochia (Bassia scoparia) [11]; [18]
  Kochia plant response rating (0 to 100 scale): 90
[12]; Postemergence, 31 g ai/ha
  Pigweed plant response rating (0 to 100 scale): 10
[12]; [18]
  Pigweed plant response rating (0 to 100 scale): 70
[13]; Postemergence, 31 g ai/ha
  Ragweed plant response rating (0 to 100 scale): 100
[13]; [18]
  Ragweed plant response rating (0 to 100 scale): 100
[14]; Postemergence, 31 g ai/ha
  Wheat plant response rating (0 to 100 scale): 30
[14]; [18]
  Wheat plant response rating (0 to 100 scale): 50
[15]
  Plant response rating, Barnyardgrass (Flood): 40
[16]
  Plant response rating, Ducksalad (Flood): 60
Rice (Oryza sativa)
  Plant response rating, Rice (Flood): 0
[17]
  Plant response rating, Sedge, Umbrella (Flood): 65
